Experimental data from patent publication EP0554004A2, “Cephem compounds and antibacterial agents” (KATAYAMA SEIYAKUSYO CO. Ltd., priority 1992, dated 1993).
Counter-ions that a name gives are not always drawn.

Columns and labels:
[1] = system: Citrobacter freundii ATCC 8090; test: MIC against standard strains (Test Example 1); format: cell-based; details: ATCC8090, Muller-Hinton agar, 37°C overnight
Protocol: (§1) By using each test strain cultured overnight at 37°C in a Muller-Hinton broth, there was prepared a bacterial solution with a bacterial cell population of 1 x 10^6 CFU/mi of the same bouillon. The bacterial solution was inoculated into the Muller-Hinton agar media each containing respectively one test agent and, after overnight incubation at 37°C, the minimum concentration that inhibited growth of the bacteria was determined and shown as MIC also in Table 1.
(§2) Staphylococcus aureus 167 and Staphylococcus aureus 195 used in the test were MRSA. CTM (cefotiam) and FMOX (flomoxef) were used as control agents.

[2] = system: Escherichia coli CSH2 (RE45); test: MIC against standard strains (Test Example 1); format: cell-based
Protocol: as §1, §2

[3] = system: Bacillus subtilis ATCC 6633; test: MIC against standard strains (Test Example 1); format: cell-based; details: ATCC6633, Muller-Hinton agar, 37°C overnight
Protocol: as §1, §2

[4] = system: Serratia marcescens IAM 1184; test: MIC against standard strains (Test Example 1); format: cell-based; details: IAM1184, Muller-Hinton agar, 37°C overnight
Protocol: as §1, §2

[5] = system: Staphylococcus aureus 167; test: MIC against standard strains (Test Example 1); format: cell-based; details: Staphylococcus aureus 167 (MRSA); Muller-Hinton agar, 37°C overnight
Protocol: as §1, §2

[6] = system: Pseudomonas aeruginosa NCTC 10490; test: MIC against standard strains (Test Example 1); format: cell-based; details: NCTC10490, Muller-Hinton agar, 37°C overnight
Protocol: as §1, §2

[7] = system: Psuedomonas aeruginosa IFO 3445; test: MIC against standard strains (Test Example 1); format: cell-based; details: Muller-Hinton agar, 37°C overnight
Protocol: as §1, §2

[8] = system: Staphylococcus aureus 195; test: MIC against standard strains (Test Example 1); format: cell-based; details: Staphylococcus aureus 195 (MRSA); Muller-Hinton agar, 37°C overnight
Protocol: as §1, §2

[9] = system: Micrococcus luteus ATCC 9341; test: MIC against standard strains (Test Example 1); format: cell-based; details: ATCC9341, Muller-Hinton agar, 37°C overnight
Protocol: as §1, §2

[10] = system: Proteus mirabilis IFO 3849; test: MIC against standard strains (Test Example 1); format: cell-based; details: IFO3849, Muller-Hinton agar, 37°C overnight
Protocol: as §1, §2

[11] = system: Morganella morganii IFO 3848; test: MIC against standard strains (Test Example 1); format: cell-based; details: IFO3848, Muller-Hinton agar, 37°C overnight
Protocol: as §1, §2

[12] = system: Klebsiella pneumoniae No. 42; test: MIC against standard strains (Test Example 1); format: cell-based; details: Muller-Hinton agar, 37°C overnight
Protocol: as §1, §2

[13] = system: Staphylococcus aureus 209P JC-1; test: MIC against standard strains (Test Example 1); format: cell-based; details: Muller-Hinton agar, 37°C overnight
Protocol: as §1, §2

[14] = system: Klebsiella pneumoniae IFO 3317; test: MIC against standard strains (Test Example 1); format: cell-based; details: IFO3317, Muller-Hinton agar, 37°C overnight
Protocol: as §1, §2

Proteus vulgalis OX-19 = test: MIC against standard strains (Test Example 1); format: cell-based; details: Muller-Hinton agar, 37°C overnight
Protocol: as §1, §2

[15] = system: Enterobacter cloacae ATCC 13407; test: MIC against standard strains (Test Example 1); format: cell-based; details: ATCC13407, Muller-Hinton agar, 37°C overnight
Protocol: as §1, §2

[16] = system: Staphylococcus aureus Smith; test: MIC against standard strains (Test Example 1); format: cell-based; details: Muller-Hinton agar, 37°C overnight
Protocol: as §1, §2

[17] = system: Escherichia coli NIHJ JC-2; test: MIC against standard strains (Test Example 1); format: cell-based; details: NIHJJC2, Muller-Hinton agar, 37°C overnight
Protocol: as §1, §2

[18] = system: Escherichia coli CSH2 (RK1); test: MIC against standard strains (Test Example 1); format: cell-based
Protocol: as §1, §2

[19] = system: Staphylococcus epidermidis IAM 1296; test: MIC against standard strains (Test Example 1); format: cell-based; details: IAM1296, Muller-Hinton agar, 37°C overnight
Protocol: as §1, §2

clinically isolated MRSA = test: Antibacterial potency against clinically isolated MRSA (Test Example 2); format: cell-based, methicillin-resistant Staphylococcus aureus; details: Staphylococcus aureus, 52 strains of clinically isolated MRSA; for MIC50: concentration inhibiting growth of 50% of the strains (Test Example 2); for MIC90: concentration inhibiting growth of 90% of the strains (Test Example 2)
Protocol: A test on the antibacterial potency against clinically isolated MRSA was conducted in the following way.
52 strains of clinically isolated MRSA were used, and MIC was determined for each of the strains according to the standard method of the Japan Chemotherapical Society as in Test Example 1. The minimum growth inhibitory concentration which inhibited growth of 50% of the strains tested was expressed as MIC50 (µg/ml), and the minimum growth inhibitory concentration which inhibited growth of 90% of the strains was expressed as MIC90 (µg/ml).
In this test, FMOX (flomoxef), IPM/CS (imipenem/cilastatin), CMZ (cefmetazole), MINO (minocycline) and DMPPC (methicillin) were used as control agents.

CC(=O)c1ccc[n+](CC2=C(C(=O)[O-])N3C(=O)[C@@H](NC(=O)/C(=N\O)c4csc(N)n4)[C@H]3SC2)c1 [Compound (2), 7β-[2-(2-aminothiazol-4-yl)-2-syn-hydroxyiminoacetamido]-3-[(3-acetyl-1-pyridinio)methyl]-3-cephem-4-carboxylic acid chloride]
MIC [1]: 0.39 µg/mL | MIC [2]: 0.78 µg/mL | MIC [3]: 0.78 µg/mL | MIC [4]: 0.39 µg/mL | MIC [5]: 12.5 µg/mL | MIC [6]: 3.13 µg/mL | MIC [7]: 25 µg/mL | MIC [8]: 6.25 µg/mL | MIC [9]: 0.1 µg/mL | MIC [10]: 0.39 µg/mL | MIC [11]: 0.2 µg/mL | MIC [12]: 0.78 µg/mL | MIC [13]: 0.2 µg/mL | MIC [14]: 0.39 µg/mL | MIC (Proteus vulgalis OX-19): 0.39 µg/mL | MIC [15]: 1.56 µg/mL | MIC [16]: 0.39 µg/mL | MIC [17]: 0.39 µg/mL | MIC [18]: 0.78 µg/mL | MIC [19]: 0.2 µg/mL | MIC50 (clinically isolated MRSA): 3.77 µg/mL | MIC90 (clinically isolated MRSA): 9.47 µg/mL

Nc1ccc[n+](CC2=C(C(=O)[O-])N3C(=O)[C@@H](NC(=O)/C(=N\O)c4csc(N)n4)[C@H]3SC2)c1 [Compound (3), 7β-[2-(2-aminothiazol-4-yl)-2-syn-hydroxyiminoacetamido]-3-[(3-amino-1-pyridinio)methyl]-3-cephem-4-carboxylate hydrochloride]
MIC [1]: 0.2 µg/mL | MIC [2]: 0.2 µg/mL | MIC [3]: 0.2 µg/mL | MIC [4]: 0.1 µg/mL | MIC [5]: 12.5 µg/mL | MIC [6]: 3.13 µg/mL | MIC [7]: 6.25 µg/mL | MIC [8]: 3.13 µg/mL | MIC [9]: 0.05 µg/mL | MIC [10]: 0.2 µg/mL | MIC [11]: 0.05 µg/mL | MIC [12]: 0.2 µg/mL | MIC [13]: 0.2 µg/mL | MIC [14]: 0.1 µg/mL | MIC (Proteus vulgalis OX-19): 0.39 µg/mL | MIC [15]: 3.13 µg/mL | MIC [16]: 0.39 µg/mL | MIC [17]: 0.2 µg/mL | MIC [18]: 0.39 µg/mL | MIC [19]: 0.1 µg/mL | MIC50 (clinically isolated MRSA): 3.94 µg/mL | MIC90 (clinically isolated MRSA): 9.21 µg/mL

NC(=O)c1ccc[n+](CC2=C(C(=O)[O-])N3C(=O)[C@@H](NC(=O)/C(=N\O)c4csc(N)n4)[C@H]3SC2)c1 [Compound (1), 7β-[2-(2-aminothiazol-4-yl)-2-syn-hydroxyiminoacetamido]-3-[(3-carbamoyl-1-pyridinio)methyl]-3-cephem-4-carboxylic acid chloride]
MIC [1]: 0.39 µg/mL | MIC [2]: 0.39 µg/mL | MIC [3]: 0.39 µg/mL | MIC [4]: 0.2 µg/mL | MIC [5]: 6.25 µg/mL | MIC [6]: 3.13 µg/mL | MIC [7]: 25 µg/mL | MIC [8]: 3.13 µg/mL | MIC [9]: 0.05 µg/mL | MIC [10]: 0.39 µg/mL | MIC [11]: 0.39 µg/mL | MIC [12]: 0.78 µg/mL | MIC [13]: 0.2 µg/mL | MIC [14]: 0.2 µg/mL | MIC (Proteus vulgalis OX-19): 0.78 µg/mL | MIC [15]: 0.78 µg/mL | MIC [16]: 0.39 µg/mL | MIC [17]: 0.39 µg/mL | MIC [18]: 0.78 µg/mL | MIC [19]: 0.1 µg/mL | MIC50 (clinically isolated MRSA): 3.79 µg/mL | MIC90 (clinically isolated MRSA): 11.4 µg/mL

NC(=O)Nc1ccc[n+](CC2=C(C(=O)[O-])N3C(=O)[C@@H](NC(=O)/C(=N\O)c4csc(N)n4)[C@H]3SC2)c1 [Compound (4), 7β-[2-(2-aminothiazol-4-yl)-2-syn-hydroxyiminoacetamido]-3-[(3-ureido-1-pyridinio)methyl]-3-cephem-4-carboxylic acid chloride]
MIC [1]: 0.1 µg/mL | MIC [2]: 0.39 µg/mL | MIC [3]: 0.2 µg/mL | MIC [4]: 0.1 µg/mL | MIC [5]: 12.5 µg/mL | MIC [6]: 1.56 µg/mL | MIC [7]: 12.5 µg/mL | MIC [8]: 3.13 µg/mL | MIC [9]: 0.39 µg/mL | MIC [10]: 0.1 µg/mL | MIC [11]: 0.05 µg/mL | MIC [12]: 0.39 µg/mL | MIC [13]: 0.1 µg/mL | MIC [14]: 0.1 µg/mL | MIC (Proteus vulgalis OX-19): 0.78 µg/mL | MIC [15]: 0.39 µg/mL | MIC [16]: 0.2 µg/mL | MIC [17]: 0.1 µg/mL | MIC [18]: 0.78 µg/mL | MIC [19]: 0.05 µg/mL | MIC50 (clinically isolated MRSA): 2.17 µg/mL | MIC90 (clinically isolated MRSA): 6.16 µg/mL
